Experimental data: paper PMC11798738, “Targeting ASK1 by CS17919 alleviates kidney‐ and liver‐related diseases in murine models” (Animal Models and Experimental Medicine, 2024)
“Also recorded” adds a separate entry of the source. Like-named read-outs stand apart in the source and are kept apart here. Marks after values point to notes of the source that are not given here.

How the values were obtained:
diabetic kidney disease = tested on: diabetic kidney disease; design: method as in PMID 25531162; settings: cited from earlier work
L02 cells = experiment: Cell protection in PA-stimulated L02 cells (Cell Titer-Glo viability); format: cell-based, human; settings: 50 μmol/L PA, 72 h
Protocol: L02 cells were cultured in DMEM medium (Gibco, 11 965 092, Carlsbad, CA, USA) supplemented with 20% FBS and 1× penicillin–streptomycin. L02 cells were inoculated in two 96‐well plates at 1E4 cells/well (200 μL). The following day, the cells were stimulated with 50 μmol/L PA (dissolved in ethanol to make a 200× stock solution and then added to the medium) and simultaneously incubated with different concentrations of CS17919 and GS‐4997 (CS17919 and GS‐4997 stock solutions were added to the well plates to reach a final concentration of 10–0.3 μmol/L). After 72 h of incubation, the original medium was removed, followed by the addition of 100 μL of new DMEM medium and 60 μL of Cell Titer‐Glo reagent per well. The cells were incubated for 5 min in the dark, and then transferred to a black permeable plate for detection using an enzyme plate reader (Tecan spark, Grödig, Austria).

CCC‐HEL‐1 = experiment: MTS cytotoxicity assay, CCC-HEL-1; format: cell-based, human; settings: 72 h
Protocol: (§1) Human embryonic kidney cells (HEK‐293A), human hepatocellular carcinoma cells (HUH7), human embryonic liver diploid cells (CCC‐HEL‐1) and human embryonic lung cells (MRC‐5) were selected for the cytotoxicity study of both drugs, using the MTS assay protocol. Cells were cultured at 37°C with 5% CO2 using an appropriate medium. […] After 72 h of incubation, 30 μL of MTS solution was added to each well, and the cells were then incubated for 2–4 h in the dark. The absorbance value of each well at 490 nm was measured using an enzymatic plate reader and the IC50 for each drug and each cell line was calculated. Cell viability and cytoxicity experiments were repeated three times.

UUO mouse model = UUO mouse model of kidney injury and fibrosis; format: in vivo, C57BL/6J mice; settings: CS17919 10 and 60 mg/kg, GS-4997 30 mg/kg, gavage twice daily, 11 days
Protocol: 55 C57BL/6J mice, male, 6–8 weeks old were purchased from Chengdu Pharmachem Biotechnology Co. (Chengdu, China) and randomly divided into 5 groups according to their body weight: Sham (n = 10), Model (n = 15), CS17919L (10 mg/kg, n = 10), CS17919H (60 mg/kg, n = 10), and GS‐4997 (30 mg/kg, n = 10). The mice were anesthetized and fixed on the operating table, and the abdominal cortex and muscles were cut in the middle of the right side of the abdomen, and the ureter was searched for along the renal hilum. The ureter was separated using a glass split‐needle and ligated at the opening of the renal pelvis and the upper 1/3 of the ureter, and the ureter was cut between the two ligatures. Finally, the muscle and skin were closed with consecutive sutures, and animals were kept under observation until they awoke. Both the Sham and the Model group received solvent (0.2% CMC‐Na + 0.1% Tween‐80) orally twice daily. CS17919 and GS‐4997 were administered by gavage twice daily at the corresponding doses for 11 days. All treatments were started one day before surgical operation. All mice were sacrificed one day after administration with overnight fasting. Blood was collected, and serum was isolated for the analysis of urea nitrogen and creatinine. The kidney of each mouse was removed, weighed and fixed in 10% formalin solution for pathological study.
Masson staining was applied to determine kidney fibrosis in the UUO model. Thin 4 μm paraffin sections of each sample were used in this study, which followed the standard procedure. The sections were stained with Hematoxylin staining solution for 5–10 min and then washed, followed by staining with Ponceau S‐acid fuchsin stain for around 5–10 min. The sections were treated with 1% phosphomolybdic acid and Aniline Blue solution, and finally dehydrated stepwise in alcohol and sealed. VIS7.0 software was used to analyze the area of kidney fibrosis and the percentage of the fibrosis area in the scanning area was calculated.

NASH [1] = tested on: NASH; design: method as in PMID 32147362; settings: cited from earlier work
[2] = tested on: 5/6 nephrectomy (5/6 Nx) rat model; design: method as in PMID 35919527; settings: GS-4997 alone; cited from earlier work
MRC‐5 = experiment: MTS cytotoxicity assay, MRC-5; format: cell-based, human; settings: 72 h
Protocol: as §1

UUO model = tested on: UUO model; design: method as in PMID 37310976; settings: cited from earlier work
NASH [3] = tested on: NASH; design: method as in PMID 28218919, PMID 31996485; settings: cited from earlier work
DKD = tested on: DKD; design: method as in PMID 30526503, PMID 26180085, PMID 30024858; settings: cited from earlier work
CYP 2C9 = CYP 2C9 (Homo sapiens, UniProt P11712); experiment: CYP inhibition in vitro; format: in vitro ADME
CYP 2C8 = CYP 2C8 (Homo sapiens, UniProt P10632); experiment: CYP inhibition in vitro; format: in vitro ADME
CYP 1A2 = CYP 1A2 (Homo sapiens, UniProt P05177)
CYP 2C19 = CYP 2C19 (Homo sapiens, UniProt P33261); experiment: CYP inhibition in vitro; format: in vitro ADME
[4] = Metabolic stability in liver microsomes; format: in vitro ADME; settings: Mouse
CYP3A4 [5] = molecular target: T1, CYP3A4 (Homo sapiens, UniProt P08684)
NASH mouse model [6] = experiment: CCL4- and HFD-induced NASH mouse model; format: in vivo, C57BL/6J mice; settings: CS17919 20 mg/kg
Protocol: 41 C57BL/6J mice, male, 6–8 weeks of age, were purchased from Chengdu Dossy Experimental Animal Co. (Chengdu, China), 9 of which were assigned in the control group and fed a chow diet. The other 32 mice were fed a HFD (D12429, Research diet, USA). After 8 weeks of feeding, these mice with HFD were subcutaneously injected with CCL4 (0.1 mL/kg) twice a week. These mice were then randomly subdivided into 4 groups according to serum ALT and AST at week 12: Model (n = 8), CS17919 (n = 8), CS27109 (n = 8), and Combination (n = 8). Both the control and model groups were given the solvent mentioned above, administered orally twice a day, while CS17919 was administered twice a day by gavage at a dose of 20 mg/kg and CS27109 was administered twice a day by gavage at a dose of 10 mg/kg for 4 weeks. The body weight of each mouse was measured every 3 days during the drug intervention. All animals were fasted overnight after the last drug administration and blood was collected to isolate serum for biochemical tests including AST, ALT, TG, TC, HDL‐c, and LDL‐c. The liver of each mouse was removed, the right lobe of which was fixed in 10% formalin solution for pathological study.
H&E staining was applied to determine scores for liver steatosis, ballooning and inflammation in the NASH model. Thin 4 μm paraffin sections of each sample were used to assess liver histology, following a standard protocol. Paraffin sections were deparaffinized and placed in Hematoxylin staining solution for 3–8 min before using tap water to elute excess Hematoxylin. Sections were stained in Eosin stain for about 1–3 min and rinsed with tap water. Finally, the slices were dehydrated and sealed. Score ranges were 0–3 for liver steatosis, 0–2 for ballooning and 0–12 for inflammation (which included scores of 0–3 for portal inflammation, 0–3 for lobular inflammation, 0–3 for piecemeal necrosis, and 0–3 for bridging necrosis).
Sirius Red staining was applied to determine liver fibrosis in the NASH model. Thin 4 μm paraffin sections of each sample were used in this study followed the standard procedure. Sections were first stained with Hematoxylin for 5–10 min, then washed and stained with Sirius Red stain about 15–30 min. Finally, the sections were rinsed and sealed. Image‐Pro Plus 6.0 was used for analyzing the area of liver fibrosis and the percentage of the fibrosis area in each section was calculated.

CYP 2B6 = CYP 2B6 (Homo sapiens, UniProt P20813); experiment: CYP inhibition in vitro; format: in vitro ADME
CYP 2D6 = CYP 2D6 (Homo sapiens, UniProt P10635); experiment: CYP inhibition in vitro; format: in vitro ADME
NASH mouse model [7] = experiment: CCL4- and HFD-induced NASH mouse model; format: in vivo, C57BL/6J mice; settings: data not shown; model group 5/9
CYP3A4 [8] = molecular target: T1, CYP3A4; experiment: CYP inhibition in vitro; settings: read-out: CYP3A4 (Midazolam) inhibition IC50; substrate Midazolam
[9] = Metabolic stability in liver microsomes; format: in vitro ADME; settings: Human
[10] = Metabolic stability in liver microsomes; format: in vitro ADME; settings: Rat
[11] = 4 weeks, CS27109 10 mg/kg twice a day
[12] = serum after 4 weeks, CS27109 10 mg/kg, gavage twice a day, mean ± SD

T1 sequence (P08684 whole entry): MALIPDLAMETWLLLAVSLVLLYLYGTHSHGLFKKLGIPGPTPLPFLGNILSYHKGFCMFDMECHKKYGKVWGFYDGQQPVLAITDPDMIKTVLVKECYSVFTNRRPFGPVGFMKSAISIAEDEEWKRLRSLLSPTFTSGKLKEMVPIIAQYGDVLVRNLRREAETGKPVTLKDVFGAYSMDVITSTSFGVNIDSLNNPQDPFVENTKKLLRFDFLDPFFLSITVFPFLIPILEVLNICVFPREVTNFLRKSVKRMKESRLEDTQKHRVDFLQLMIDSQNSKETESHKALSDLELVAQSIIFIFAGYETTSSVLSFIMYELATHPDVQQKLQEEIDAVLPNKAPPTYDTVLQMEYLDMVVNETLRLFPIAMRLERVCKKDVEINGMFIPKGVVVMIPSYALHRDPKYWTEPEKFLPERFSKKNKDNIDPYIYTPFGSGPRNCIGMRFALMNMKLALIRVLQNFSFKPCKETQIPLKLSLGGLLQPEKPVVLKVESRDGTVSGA
Chain of CYP 2D6 (P10635 whole entry): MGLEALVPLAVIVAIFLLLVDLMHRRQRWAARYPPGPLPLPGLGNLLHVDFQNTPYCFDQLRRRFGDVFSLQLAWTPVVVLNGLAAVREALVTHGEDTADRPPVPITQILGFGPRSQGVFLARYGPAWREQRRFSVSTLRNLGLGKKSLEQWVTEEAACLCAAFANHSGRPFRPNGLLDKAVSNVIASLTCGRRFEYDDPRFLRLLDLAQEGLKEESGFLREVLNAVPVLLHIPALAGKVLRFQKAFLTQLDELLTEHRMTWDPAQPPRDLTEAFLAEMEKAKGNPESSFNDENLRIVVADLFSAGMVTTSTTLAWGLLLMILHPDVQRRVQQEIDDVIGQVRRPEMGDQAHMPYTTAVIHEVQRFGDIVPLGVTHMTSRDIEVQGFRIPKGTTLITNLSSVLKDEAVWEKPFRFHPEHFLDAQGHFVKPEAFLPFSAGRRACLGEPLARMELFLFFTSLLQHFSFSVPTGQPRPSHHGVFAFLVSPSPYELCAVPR
Chain of CYP 2B6 (P20813 whole entry): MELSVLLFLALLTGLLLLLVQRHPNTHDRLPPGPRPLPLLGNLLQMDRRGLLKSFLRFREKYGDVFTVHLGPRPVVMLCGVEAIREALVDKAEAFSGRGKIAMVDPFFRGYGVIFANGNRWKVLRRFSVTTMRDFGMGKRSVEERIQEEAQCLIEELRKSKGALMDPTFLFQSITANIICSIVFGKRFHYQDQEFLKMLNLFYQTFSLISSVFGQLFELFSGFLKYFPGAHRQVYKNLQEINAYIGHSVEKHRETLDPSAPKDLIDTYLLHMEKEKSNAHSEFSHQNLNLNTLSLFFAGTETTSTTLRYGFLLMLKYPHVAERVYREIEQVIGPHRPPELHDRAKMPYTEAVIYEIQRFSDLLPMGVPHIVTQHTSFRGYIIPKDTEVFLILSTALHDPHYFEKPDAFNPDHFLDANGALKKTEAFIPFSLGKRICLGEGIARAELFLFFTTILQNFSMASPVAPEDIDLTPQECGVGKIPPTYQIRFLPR
Chain of CYP 2C19 (P33261 whole entry): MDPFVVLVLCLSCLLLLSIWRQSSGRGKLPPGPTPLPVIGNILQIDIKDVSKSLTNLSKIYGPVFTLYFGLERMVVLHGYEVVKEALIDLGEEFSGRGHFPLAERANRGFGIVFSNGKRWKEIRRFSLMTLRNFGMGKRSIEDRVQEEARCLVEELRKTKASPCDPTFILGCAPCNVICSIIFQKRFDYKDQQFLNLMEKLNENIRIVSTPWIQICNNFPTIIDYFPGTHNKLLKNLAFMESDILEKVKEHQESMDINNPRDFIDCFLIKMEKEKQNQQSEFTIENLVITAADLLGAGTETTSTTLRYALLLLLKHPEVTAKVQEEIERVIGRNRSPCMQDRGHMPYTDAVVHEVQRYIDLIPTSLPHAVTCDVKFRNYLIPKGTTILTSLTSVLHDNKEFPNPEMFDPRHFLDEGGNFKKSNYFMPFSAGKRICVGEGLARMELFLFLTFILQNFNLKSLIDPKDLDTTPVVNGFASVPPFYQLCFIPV
Chain of CYP 1A2 (P05177 whole entry): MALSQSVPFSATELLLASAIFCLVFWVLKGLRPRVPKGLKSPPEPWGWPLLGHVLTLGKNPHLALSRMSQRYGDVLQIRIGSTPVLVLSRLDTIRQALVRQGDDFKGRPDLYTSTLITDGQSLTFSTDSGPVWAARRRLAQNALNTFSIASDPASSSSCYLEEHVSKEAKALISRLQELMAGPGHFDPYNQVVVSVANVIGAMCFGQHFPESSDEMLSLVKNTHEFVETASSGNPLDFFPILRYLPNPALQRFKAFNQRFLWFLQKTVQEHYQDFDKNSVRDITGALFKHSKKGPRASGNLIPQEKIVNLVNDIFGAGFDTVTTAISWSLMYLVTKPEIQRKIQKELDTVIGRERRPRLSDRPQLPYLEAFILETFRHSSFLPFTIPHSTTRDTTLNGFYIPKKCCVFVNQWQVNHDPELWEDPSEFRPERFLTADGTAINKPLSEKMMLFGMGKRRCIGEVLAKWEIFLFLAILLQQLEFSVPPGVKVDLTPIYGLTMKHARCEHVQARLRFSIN
Chain of CYP 2C8 (P10632 whole entry): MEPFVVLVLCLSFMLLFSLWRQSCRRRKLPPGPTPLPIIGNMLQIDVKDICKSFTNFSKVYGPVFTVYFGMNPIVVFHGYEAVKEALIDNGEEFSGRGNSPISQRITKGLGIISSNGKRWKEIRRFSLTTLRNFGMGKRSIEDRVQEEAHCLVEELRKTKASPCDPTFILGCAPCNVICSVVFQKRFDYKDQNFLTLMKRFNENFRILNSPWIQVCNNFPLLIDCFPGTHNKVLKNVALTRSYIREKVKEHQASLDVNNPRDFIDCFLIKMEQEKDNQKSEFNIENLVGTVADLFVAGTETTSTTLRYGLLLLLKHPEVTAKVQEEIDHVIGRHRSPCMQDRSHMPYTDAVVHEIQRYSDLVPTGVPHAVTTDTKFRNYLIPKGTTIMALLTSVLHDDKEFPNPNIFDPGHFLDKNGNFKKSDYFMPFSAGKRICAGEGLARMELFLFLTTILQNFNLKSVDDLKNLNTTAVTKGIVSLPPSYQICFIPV
Chain of CYP 2C9 (P11712 whole entry): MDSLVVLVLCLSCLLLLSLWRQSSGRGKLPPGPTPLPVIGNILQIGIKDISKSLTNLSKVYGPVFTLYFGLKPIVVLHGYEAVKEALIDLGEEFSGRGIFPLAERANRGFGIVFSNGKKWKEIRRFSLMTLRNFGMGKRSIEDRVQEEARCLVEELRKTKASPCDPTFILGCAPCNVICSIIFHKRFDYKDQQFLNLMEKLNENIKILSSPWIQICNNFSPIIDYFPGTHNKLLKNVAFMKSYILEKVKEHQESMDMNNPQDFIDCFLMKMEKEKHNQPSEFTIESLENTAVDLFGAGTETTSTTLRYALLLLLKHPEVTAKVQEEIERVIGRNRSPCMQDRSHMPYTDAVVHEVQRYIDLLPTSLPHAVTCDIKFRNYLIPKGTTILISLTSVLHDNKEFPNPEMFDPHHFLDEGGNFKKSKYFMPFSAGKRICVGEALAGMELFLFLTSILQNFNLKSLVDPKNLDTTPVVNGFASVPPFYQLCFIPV

## Cc1cc(F)c(C(=O)Nc2cccc(-c3nncn3C(C)C)n2)cc1-n1cnc(C2CC2)c1 [GS‐4997, Selonsertib, reference compound]
Diabetic kidney disease
  Outcome of DKD clinical trial: did not meet its primary endpoint
L02 cells; 0.32–10 μmol/L drug
  Cell protection (cell viability normalized to PA-treated cells): only protected against cell death at lower doses
L02 cells; 5 and 10 μmol/L drug
  Cell viability at high drug doses: reduced cell viability in a dose‐dependent manner
CCC‐HEL‐1
  Cytotoxicity (cell viability): reduced cell viability at higher doses
UUO mouse model
  Area of kidney fibrosis (Masson staining): tendency to reduce
  Serum creatinine vs model group: non‐significant tendency to decrease
  Serum urea nitrogen vs model group: significantly reduced
NASH [1]
  Outcome of phase III NASH trial: failed
[2]
  CKD-related characteristics and kidney function: barely improved CKD‐related characteristics, but preserved kidney function
MRC‐5
  Cytotoxicity (cell viability): reduced cell viability at higher doses; also recorded: high‐dose cytotoxicity

## O=C(Nc1cccc(-c2nncn2C2CC2)c1)c1cc(-n2cnc(C3CC3)c2)ccn1 [GS‐444217]
UUO model
  Kidney fibrosis: attenuate kidney fibrosis
NASH [3]
  NASH symptoms: significantly ameliorated NASH symptoms
DKD
  Glomerular sclerosis progression: halt the progression of glomerular sclerosis

## N#Cc1nn(-c2cc(Br)c(Oc3n[nH]c(=O)c4ccccc34)c(Br)c2)c(=O)[nH]c1=O [CS27109]
CYP 2C9
  IC50: 5.1 µM
CYP 2C8
  IC50: > 10 µM
CYP 1A2
  IC50: > 10 µM
CYP 2C19
  IC50: > 10 µM
[4]
  Clint in liver microsomes: 7.72 mL/min/kg
  T1/2 in liver microsomes: >120 min
CYP3A4 [5]
  IC50: > 10 µM
NASH mouse model [6]; [11]
  Liver fibrosis area (Sirius Red staining): improving all pathologic features of NASH
  Liver inflammation score (H&E): improving all pathologic features of NASH
  Liver steatosis and ballooning scores (H&E): improving all pathologic features of NASH
NASH mouse model [6]; [12]
  ALT: 68.7 ± 18.8^c U/L
  AST: 113.0 ± 36.2^a U/L
  HDL‐C: 0.665 ± 0.284 mmol/L
  LDL‐C: 0.040 ± 0.026^b mmol/L
  TC: 0.785 ± 0.277 mmol/L
  TG: 0.329 ± 0.341 mmol/L
CYP 2B6
  IC50: > 10 µM
CYP 2D6
  IC50: > 10 µM
NASH mouse model [7]
  Occurrence of hepatocellular carcinoma (mice affected/group): 2/8
CYP3A4 [8]
  IC50: > 10 µM
[9]
  Clint in liver microsomes: 0.83 mL/min/kg
  T1/2 in liver microsomes: >120 min
[10]
  Clint in liver microsomes: 4.24 mL/min/kg
  T1/2 in liver microsomes: >120 min
